Patent publication US20240294541A1, “COMPOUNDS CONSTITUTING C20-MODIFIED SALINOMYCIN DERIVATIVES, A METHOD FOR OBTAINING THE SAME, A COMPOSITION CONTAINING THE SAME AND A USE OF SAID COMPOUNDS” (FILECLO SPOLKA Z OGRANICZONA ODPOWIEDZIALNOSCIA, priority 2021, published 2024)
Read-outs that look alike come from different tables or passages of the source.

How the values were obtained:
Type in all cases: cell-based
[1] = test system: A2780Cis (cisplatin-resistant human ovarian cancer); assay: In vitro cytotoxicity, SRB assay, A2780Cis; details: for IC50: Homo sapiens, A2780cis
[2] = test system: Hs294T (human melanoma); assay: cells; details: for IC50: Hs 294T; for Hs294T SI: selectivity coefficient vs normal BALB/3T3 cells
[3] = test system: PLC/PRF/5 (human liver cancer); assay: cells; details: for PLC/PRF/5 SI: selectivity coefficient vs normal BALB/3T3 cells
[4] = test system: SNU-16 (human gastric cancer); assay: cells; details: for SNU-16 SI: selectivity coefficient vs normal BALB/3T3 cells
[5] = test system: MIA PaCa-2 (human pancreatic cancer); assay: cells; details: for MIA PaCa-2 SI: selectivity coefficient vs normal BALB/3T3 cells
[6] = test system: BALB/3T3 (normal mouse fibroblasts); assay: In vitro cytotoxicity, SRB assay, normal BALB/3T3 fibroblasts
[7] = test system: MV-4-11 (human biphenotypic leukaemia); assay: In vitro cytotoxicity, MTT assay, MV-4-11
[8] = test system: NCI-H358 (human lung cancer); assay: cells; details: Table 4; for IC50: NCI-H358 human lung cancer cells, read-out: IC50 (nM) NCI-H358
[9] = test system: NCI-H23 (human lung cancer); assay: In vitro cytotoxicity, SRB assay, NCI-H23; details: for IC50: Homo sapiens; for NCI-H23 SI: selectivity coefficient vs normal BALB/3T3 cells
[10] = test system: PFSK-1 (malignant primitive neuroectodermal tumour); assay: In vitro cytotoxicity, SRB assay, PFSK-1; details: for IC50: Homo sapiens; for PFSK-1 SI: selectivity coefficient vs normal BALB/3T3 cells
[11] = test system: A2780 (human ovarian cancer); assay: In vitro cytotoxicity, SRB assay, A2780; details: for IC50: Homo sapiens; for A2780 SI: selectivity coefficient vs normal BALB/3T3 cells
[12] = test system: A375 (human melanoma); assay: In vitro cytotoxicity, SRB assay, A375; details: for IC50: Homo sapiens; for A375 SI: selectivity coefficient vs normal BALB/3T3 cells
[13] = test system: KG-1 (human acute myeloid leukaemia); assay: In vitro cytotoxicity, MTT assay, KG-1; details: for IC50: Homo sapiens, 72 h with compound, MTT, n/a = non-active compound; for KG-1 SI: selectivity coefficient vs normal BALB/3T3 cells
[14] = Table 4, Hs294T human melanoma cells, read-out: IC50 (nM) Hs294T
[15] = Table 4, selectivity coefficient vs normal BALB/3T3 fibroblasts
[16] = Table 4, PLC/PRF/5 human liver cancer cells, read-out: IC50 (nM) PLC/PRF/5
[17] = Table 4, SNU-16 human gastric cancer cells, read-out: IC50 (nM) SNU-16
[18] = Table 4, MIA PaCa-2 human pancreatic cancer cells, read-out: IC50 (nM) MIA PaCa-2
[19] = 72 h, read-out: A2780Cis IC50 (nM)
[20] = Homo sapiens, 72 h with compound, SRB, n/a = non-active compound, read-out: Hs294T IC50
[21] = Homo sapiens, PLC-PRF-5, 72 h with compound, SRB, n/a = non-active compound, read-out: PLC/PRF/5 IC50
[22] = Homo sapiens, SNU-16, 72 h with compound, MTT, n/a = non-active compound, read-out: SNU-16 IC50
[23] = Homo sapiens, MIA PaCa-2, 72 h with compound, SRB, n/a = non-active compound, read-out: MIA PaCa-2 IC50
[24] = Mus musculus, BALB/3T3, normal cells, 72 h with compound, SRB, n/a = non-active compound, read-out: BALB/3T3 IC50

Compound	IC50 [2, 14]	IC50 [3, 16]	IC50 [4, 17]	IC50 [5, 18]	IC50 [8]	NCI-H23 SI [9]	PFSK-1 SI [10]	A2780 SI [11]	A2780Cis RI [1]	A2780Cis SI [1]	IC50 [1, 19]	A375 SI [12]	IC50 [2, 20]	Hs294T SI [2]	IC50 [3, 21]	PLC/PRF/5 SI [3]	IC50 [4, 22]	SNU-16 SI [4]	IC50 [13]	KG-1 SI [13]	also measured
CC[C@@H](C(=O)[C@@H](C)[C@@H](O)[C@H](C)[C@@H]1O[C@@H]([C@@H](CC)C(=O)O)CC[C@@H]1C)[C@H]1O[C@]2(C=C[C@@H](NC(=O)Nc3cccc(C(F)(F)F)c3)[C@]3(CC[C@@](C)([C@H]4CC[C@](O)(CC)[C@H](C)O4)O3)O2)[C@H](C)C[C@@H]1C [FLC-00385-1]	162 nM	0.55 nM	20.9 nM	5.93 nM	36.2 nM	–	–	–	–	–	–	–	–	–	–	–	–	–	–	–	SI A2780Cis [1]: ≈219.0; IC50 ([1]; read-out: IC50 (nM) A2780Cis): < 0.1 nM; SI Hs294T [2, 15]: 0.1; SI PLC/PRF/5 [3, 15]: 39.7; SI SNU-16 [4, 15]: 1.0; SI MIA PaCa-2 [5, 15]: 3.7; IC50 ([6]; Table 4, BALB/3T3 normal mouse fibroblasts, read-out: IC50 (nM) BALB3T3 normal cells): 21.9 nM; SI MV4-11 [7]: 125.5; IC50 ([7]; Homo sapiens, MV4-11, read-out: IC50 (nM) MV4-11): 0.17 nM; SI NCI-H358 ([8]; selectivity coefficient vs normal BALB/3T3 fibroblasts): 0.60
C=CCOC(=O)N[C@@H]1C=C[C@]2(O[C@H]([C@@H](CC)C(=O)[C@@H](C)[C@@H](O)[C@H](C)[C@@H]3O[C@@H]([C@@H](CC)C(=O)O)CC[C@@H]3C)[C@@H](C)C[C@H]2C)O[C@@]12CC[C@@](C)([C@H]1CC[C@](O)(CC)[C@H](C)O1)O2 [FLC-00425-1•Na]	362 nM	26.5 nM	420 nM	269 nM	234 nM	–	–	–	–	–	–	–	–	–	–	–	–	–	–	–	–
CC[C@@H](C(=O)[C@@H](C)[C@@H](O)[C@H](C)[C@@H]1O[C@@H]([C@@H](CC)C(=O)O)CC[C@@H]1C)[C@H]1O[C@]2(C=C[C@@H](NC(=S)NC(C)C)[C@]3(CC[C@@](C)([C@H]4CC[C@](O)(CC)[C@H](C)O4)O3)O2)[C@H](C)C[C@@H]1C [FLC-00387-1]	162 nM	0.7 nM	10.2 nM	9.71 nM	44.4 nM	–	–	–	–	–	–	–	–	–	–	–	–	–	–	–	–
CC[C@@H](C(=O)[C@@H](C)[C@@H](O)[C@H](C)[C@@H]1O[C@@H]([C@@H](CC)C(=O)O)CC[C@@H]1C)[C@H]1O[C@]2(C=C[C@@H](NC(=O)OCc3ccccc3)[C@]3(CC[C@@](C)([C@H]4CC[C@](O)(CC)[C@H](C)O4)O3)O2)[C@H](C)C[C@@H]1C [FLC-00431-1•Na]	115 nM	5.8 nM	143 nM	28.9 nM	56.1 nM	–	–	–	–	–	–	–	–	–	–	–	–	–	–	–	–
CC[C@@H](C(=O)[C@@H](C)[C@@H](O)[C@H](C)[C@@H]1O[C@@H]([C@@H](CC)C(=O)O)CC[C@@H]1C)[C@H]1O[C@]2(C=C[C@@H](NC(=S)Nc3ccc(Cl)c(Cl)c3)[C@]3(CC[C@@](C)([C@H]4CC[C@](O)(CC)[C@H](C)O4)O3)O2)[C@H](C)C[C@@H]1C [FLC-00379-1]	–	–	–	–	–	11.0	14.9	22.8	0.2	121.2	0.81 nM	1.4	108 nM	0.9	22.1 nM	4.5	18 nM	5.5	39 nM	2.5	IC50 ([9]; NCI-H23, 72 h, read-out: NCI-H23 IC50 (nM)): 8.96 nM; IC50 ([10]; PFSK-1, 72 h, read-out: PFSK-1 IC50 (nM)): 6.6 nM; IC50 ([11]; A2780, 72 h, read-out: A2780 IC50 (nM)): 4.31 nM; IC50 ([12]; A-375, 72 h, read-out: A375 IC50 (nM)): 68.1 nM; IC50 [5, 23]: 52.6 nM; MIA PaCa-2 SI [5]: 1.9; IC50 [6, 24]: 98.2 nM
CC[C@@H](C(=O)[C@@H](C)[C@@H](O)[C@H](C)[C@@H]1O[C@@H]([C@@H](CC)C(=O)O)CC[C@@H]1C)[C@H]1O[C@]2(C=C[C@@H](NC(=O)NCc3ccc(F)cc3)[C@]3(CC[C@@](C)([C@H]4CC[C@](O)(CC)[C@H](C)O4)O3)O2)[C@H](C)C[C@@H]1C [FLC-00383-1]	–	–	–	–	–	7.0	6.7	27.2	0.7	39.0	4.45 nM	0.8	244 nM	0.7	3.35 nM	51.7	20.3 nM	8.6	30.6 nM	5.7	IC50 ([9]; NCI-H23, 72 h with compound, SRB, n/a = non-active compound, read-out: NCI-H23 IC50): 24.6 nM; IC50 ([10]; PFSK-1, 72 h with compound, SRB, n/a = non-active compound, read-out: PFSK-1 IC50): 26 nM; IC50 ([11]; A2780, 72 h with compound, SRB, n/a = non-active compound, read-out: A2780 IC50): 6.38 nM; IC50 ([12]; A-375, 72 h with compound, SRB, n/a = non-active compound, read-out: A375 IC50): 205 nM; IC50 [5, 23]: 47.7 nM; MIA PaCa-2 SI [5]: 3.6; IC50 [6, 24]: 173 nM
